# Data published in ChEMBL document CHEMBL1145498, “A systematic interaction map of validated kinase inhibitors with Ser/Thr kinases” (Proc Natl Acad Sci U S A, 2007).
# Columns and labels:
# [1] = target: Calcium/calmodulin-dependent protein kinase type 1D (Homo sapiens) (UniProt Q8IU85)
# [2] = target: Calcium/calmodulin-dependent protein kinase type 1G (Homo sapiens) (UniProt Q96NX5)
# [3] = target: Calcium/calmodulin-dependent protein kinase type II subunit alpha (Homo sapiens) (UniProt Q9UQM7)
# [4] = target: Calcium/calmodulin-dependent protein kinase type II subunit delta (Homo sapiens) (UniProt Q13557)
# [5] = target: Calcium/calmodulin-dependent protein kinase kinase 2 (Homo sapiens, UniProt Q96RR4)
# [6] = target: Cyclin-dependent kinase 6 (Homo sapiens) (UniProt Q00534)
# [7] = target: Serine/threonine-protein kinase Chk2 (Homo sapiens, UniProt O96017)
# [8] = target: Dual specificity protein kinase CLK1 (Homo sapiens) (UniProt P49759)
# [9] = target: Dual specificity protein kinase CLK2 (Homo sapiens) (UniProt P49760)
# [10] = target: Dual specificity protein kinase CLK3 (Homo sapiens) (UniProt P49761)
# [11] = target: Casein kinase I isoform gamma-1 (Homo sapiens) (UniProt Q9HCP0)
# [12] = target: Casein kinase I isoform gamma-2 (Homo sapiens) (UniProt P78368)
# [13] = target: T1, Myotonin-protein kinase (Homo sapiens) (UniProt Q09013)
# T1 sequence (whole entry): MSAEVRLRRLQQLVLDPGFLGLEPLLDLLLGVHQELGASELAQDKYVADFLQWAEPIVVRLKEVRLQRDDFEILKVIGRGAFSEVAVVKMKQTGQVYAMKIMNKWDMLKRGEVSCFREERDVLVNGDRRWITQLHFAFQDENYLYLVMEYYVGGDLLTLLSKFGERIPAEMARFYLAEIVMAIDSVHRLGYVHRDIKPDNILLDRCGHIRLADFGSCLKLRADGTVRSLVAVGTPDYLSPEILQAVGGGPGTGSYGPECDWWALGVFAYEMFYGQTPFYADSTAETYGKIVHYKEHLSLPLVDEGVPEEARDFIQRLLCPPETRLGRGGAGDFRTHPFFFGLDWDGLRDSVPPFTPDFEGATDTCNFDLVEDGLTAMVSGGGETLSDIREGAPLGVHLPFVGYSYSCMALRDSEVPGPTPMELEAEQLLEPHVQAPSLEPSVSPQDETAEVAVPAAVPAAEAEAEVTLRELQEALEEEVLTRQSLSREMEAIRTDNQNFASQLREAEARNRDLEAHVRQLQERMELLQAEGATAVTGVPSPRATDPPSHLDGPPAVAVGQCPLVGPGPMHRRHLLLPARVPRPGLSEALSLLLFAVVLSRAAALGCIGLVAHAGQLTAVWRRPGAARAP
# [14] = target: Glycogen synthase kinase-3 beta (Homo sapiens, UniProt P49841)
# [15] = target: Tyrosine-protein kinase JAK1 (Homo sapiens) (UniProt P23458)
# [16] = target: Dual specificity mitogen-activated protein kinase kinase 2 (Homo sapiens, UniProt P36507)
# [17] = target: T2, Serine/threonine-protein kinase Nek2 (Homo sapiens) (UniProt P51955)
# T2 sequence (whole entry): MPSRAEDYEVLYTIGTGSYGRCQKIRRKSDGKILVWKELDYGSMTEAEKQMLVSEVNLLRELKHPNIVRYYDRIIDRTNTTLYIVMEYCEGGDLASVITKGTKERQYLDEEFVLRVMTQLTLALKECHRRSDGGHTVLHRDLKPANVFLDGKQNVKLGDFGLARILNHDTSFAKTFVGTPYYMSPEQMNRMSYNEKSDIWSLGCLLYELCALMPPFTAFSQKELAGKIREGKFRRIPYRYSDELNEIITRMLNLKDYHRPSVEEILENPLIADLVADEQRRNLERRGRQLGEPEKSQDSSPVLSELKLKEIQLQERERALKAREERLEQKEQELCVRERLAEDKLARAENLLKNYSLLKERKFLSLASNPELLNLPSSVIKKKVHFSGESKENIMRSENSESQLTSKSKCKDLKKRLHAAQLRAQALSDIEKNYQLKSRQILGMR
# [18] = target: Cyclin-dependent kinase 16 (Homo sapiens) (UniProt Q00536)
# [19] = target: Serine/threonine-protein kinase pim-1 (Homo sapiens) (UniProt P11309)
# [20] = target: Serine/threonine-protein kinase pim-2 (Homo sapiens, UniProt Q9P1W9)
# [21] = target: Serine/threonine-protein kinase PLK1 (Homo sapiens) (UniProt P53350)
# [22] = target: Ribosomal protein S6 kinase alpha-3 (Homo sapiens) (UniProt P51812)
# [23] = target: STE20-like serine/threonine-protein kinase (Homo sapiens) (UniProt Q9H2G2)
# [24] = target: Serine/threonine-protein kinase 38 (Homo sapiens) (UniProt Q15208)
# [25] = target: Serine/threonine-protein kinase 26 (Homo sapiens) (UniProt Q9P289)
# [26] = target: T3, Lymphokine-activated killer T-cell-originated protein kinase (Homo sapiens) (UniProt Q96KB5)
# T3 sequence (whole entry): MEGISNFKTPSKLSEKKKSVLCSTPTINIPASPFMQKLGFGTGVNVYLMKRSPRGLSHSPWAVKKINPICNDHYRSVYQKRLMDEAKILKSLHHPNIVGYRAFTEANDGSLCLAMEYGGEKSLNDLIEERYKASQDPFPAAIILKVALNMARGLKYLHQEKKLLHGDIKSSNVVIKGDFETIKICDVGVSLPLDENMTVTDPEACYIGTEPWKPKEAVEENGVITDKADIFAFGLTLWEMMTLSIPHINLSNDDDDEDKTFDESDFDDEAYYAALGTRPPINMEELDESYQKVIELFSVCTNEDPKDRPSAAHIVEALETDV
# Chain of Dual specificity protein kinase CLK2 (Homo sapiens) (P49760 whole entry, looked up): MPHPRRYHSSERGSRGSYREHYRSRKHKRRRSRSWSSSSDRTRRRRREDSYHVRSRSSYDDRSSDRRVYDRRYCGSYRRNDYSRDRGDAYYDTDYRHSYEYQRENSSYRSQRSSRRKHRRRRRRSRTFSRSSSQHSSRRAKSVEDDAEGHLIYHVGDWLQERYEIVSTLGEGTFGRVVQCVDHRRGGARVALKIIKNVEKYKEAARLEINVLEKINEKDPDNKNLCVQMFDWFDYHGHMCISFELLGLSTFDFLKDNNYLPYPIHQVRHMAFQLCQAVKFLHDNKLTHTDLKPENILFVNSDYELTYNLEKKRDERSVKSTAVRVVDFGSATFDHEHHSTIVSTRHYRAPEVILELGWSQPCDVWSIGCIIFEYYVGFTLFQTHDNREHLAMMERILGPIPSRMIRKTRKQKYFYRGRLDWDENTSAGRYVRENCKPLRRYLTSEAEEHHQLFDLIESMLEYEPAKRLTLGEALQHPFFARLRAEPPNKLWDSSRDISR
# Chain of Calcium/calmodulin-dependent protein kinase type II subunit delta (Homo sapiens) (Q13557 whole entry): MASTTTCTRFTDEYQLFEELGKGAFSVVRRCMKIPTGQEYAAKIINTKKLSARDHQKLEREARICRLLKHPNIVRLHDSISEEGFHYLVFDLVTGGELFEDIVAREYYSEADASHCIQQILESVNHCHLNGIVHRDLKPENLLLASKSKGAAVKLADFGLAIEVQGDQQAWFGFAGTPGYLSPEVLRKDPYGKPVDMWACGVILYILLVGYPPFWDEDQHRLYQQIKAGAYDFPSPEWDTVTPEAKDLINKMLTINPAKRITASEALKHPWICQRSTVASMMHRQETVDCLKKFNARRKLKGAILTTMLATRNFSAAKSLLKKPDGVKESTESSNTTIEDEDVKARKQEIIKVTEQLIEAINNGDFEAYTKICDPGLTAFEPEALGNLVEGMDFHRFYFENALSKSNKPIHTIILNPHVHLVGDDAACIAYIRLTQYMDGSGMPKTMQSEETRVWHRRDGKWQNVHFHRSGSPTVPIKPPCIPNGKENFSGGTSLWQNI
# Chain of Dual specificity protein kinase CLK3 (Homo sapiens) (P49761 whole entry, looked up, canonical isoform): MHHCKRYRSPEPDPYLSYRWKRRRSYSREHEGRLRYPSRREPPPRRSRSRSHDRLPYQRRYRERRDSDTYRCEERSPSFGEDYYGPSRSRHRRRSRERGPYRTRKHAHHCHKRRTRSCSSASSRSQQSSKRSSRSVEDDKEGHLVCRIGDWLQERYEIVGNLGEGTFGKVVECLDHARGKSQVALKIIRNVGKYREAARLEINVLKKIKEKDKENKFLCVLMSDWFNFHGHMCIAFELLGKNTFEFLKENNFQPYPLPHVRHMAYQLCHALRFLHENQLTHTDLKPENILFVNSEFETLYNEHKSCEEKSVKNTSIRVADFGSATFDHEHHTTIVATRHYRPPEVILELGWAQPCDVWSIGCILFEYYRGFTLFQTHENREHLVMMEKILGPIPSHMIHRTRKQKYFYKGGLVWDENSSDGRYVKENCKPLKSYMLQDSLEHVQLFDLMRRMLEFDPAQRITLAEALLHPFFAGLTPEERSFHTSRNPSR
# Chain of Serine/threonine-protein kinase PLK1 (Homo sapiens) (P53350 whole entry): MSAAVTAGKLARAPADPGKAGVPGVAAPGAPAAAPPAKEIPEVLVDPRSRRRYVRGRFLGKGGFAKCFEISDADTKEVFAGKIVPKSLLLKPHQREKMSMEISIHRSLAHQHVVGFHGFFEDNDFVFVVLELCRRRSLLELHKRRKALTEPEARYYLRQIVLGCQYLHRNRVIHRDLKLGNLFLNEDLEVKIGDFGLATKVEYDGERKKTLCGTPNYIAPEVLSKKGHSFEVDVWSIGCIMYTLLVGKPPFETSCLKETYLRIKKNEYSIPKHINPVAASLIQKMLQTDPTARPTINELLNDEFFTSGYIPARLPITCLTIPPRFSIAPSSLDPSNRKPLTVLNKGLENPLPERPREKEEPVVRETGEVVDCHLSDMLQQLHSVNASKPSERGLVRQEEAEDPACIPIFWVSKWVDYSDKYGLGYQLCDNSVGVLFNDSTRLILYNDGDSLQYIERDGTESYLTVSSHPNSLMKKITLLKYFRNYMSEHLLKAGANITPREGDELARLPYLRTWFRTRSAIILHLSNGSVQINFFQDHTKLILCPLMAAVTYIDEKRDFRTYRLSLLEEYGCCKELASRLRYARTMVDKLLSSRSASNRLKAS
# Chain of Ribosomal protein S6 kinase alpha-3 (Homo sapiens) (P51812 whole entry): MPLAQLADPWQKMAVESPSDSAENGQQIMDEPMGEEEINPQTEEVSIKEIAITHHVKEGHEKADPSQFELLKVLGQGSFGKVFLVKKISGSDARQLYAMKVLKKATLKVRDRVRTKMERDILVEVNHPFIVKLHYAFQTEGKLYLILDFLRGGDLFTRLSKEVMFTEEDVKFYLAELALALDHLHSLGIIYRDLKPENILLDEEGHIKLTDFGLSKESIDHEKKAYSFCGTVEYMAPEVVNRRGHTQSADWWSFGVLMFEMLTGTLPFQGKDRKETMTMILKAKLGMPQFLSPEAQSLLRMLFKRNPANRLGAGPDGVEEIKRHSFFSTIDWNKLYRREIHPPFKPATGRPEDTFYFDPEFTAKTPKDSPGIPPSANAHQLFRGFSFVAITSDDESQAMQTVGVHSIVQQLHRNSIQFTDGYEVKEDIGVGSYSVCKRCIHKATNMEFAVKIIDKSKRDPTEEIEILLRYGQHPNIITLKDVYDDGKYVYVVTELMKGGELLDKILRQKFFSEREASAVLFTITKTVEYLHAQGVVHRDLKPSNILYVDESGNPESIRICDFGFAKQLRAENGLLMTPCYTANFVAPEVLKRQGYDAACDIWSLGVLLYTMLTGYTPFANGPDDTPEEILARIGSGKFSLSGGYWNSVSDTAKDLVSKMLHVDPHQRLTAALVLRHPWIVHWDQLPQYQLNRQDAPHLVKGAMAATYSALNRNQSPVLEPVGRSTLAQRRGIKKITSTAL
# Chain of Dual specificity mitogen-activated protein kinase kinase 2 (P36507 whole entry): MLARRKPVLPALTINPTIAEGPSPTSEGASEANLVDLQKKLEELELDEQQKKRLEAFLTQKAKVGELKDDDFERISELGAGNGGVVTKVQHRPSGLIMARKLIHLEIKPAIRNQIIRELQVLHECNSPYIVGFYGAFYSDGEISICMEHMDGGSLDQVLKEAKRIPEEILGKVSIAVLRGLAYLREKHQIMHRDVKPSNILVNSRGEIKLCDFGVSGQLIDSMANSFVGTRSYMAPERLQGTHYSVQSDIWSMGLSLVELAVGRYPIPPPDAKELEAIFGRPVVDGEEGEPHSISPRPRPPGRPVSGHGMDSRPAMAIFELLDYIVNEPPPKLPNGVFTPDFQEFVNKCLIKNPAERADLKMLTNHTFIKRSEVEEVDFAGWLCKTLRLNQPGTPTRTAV
# Chain of Cyclin-dependent kinase 16 (Homo sapiens) (Q00536 whole entry): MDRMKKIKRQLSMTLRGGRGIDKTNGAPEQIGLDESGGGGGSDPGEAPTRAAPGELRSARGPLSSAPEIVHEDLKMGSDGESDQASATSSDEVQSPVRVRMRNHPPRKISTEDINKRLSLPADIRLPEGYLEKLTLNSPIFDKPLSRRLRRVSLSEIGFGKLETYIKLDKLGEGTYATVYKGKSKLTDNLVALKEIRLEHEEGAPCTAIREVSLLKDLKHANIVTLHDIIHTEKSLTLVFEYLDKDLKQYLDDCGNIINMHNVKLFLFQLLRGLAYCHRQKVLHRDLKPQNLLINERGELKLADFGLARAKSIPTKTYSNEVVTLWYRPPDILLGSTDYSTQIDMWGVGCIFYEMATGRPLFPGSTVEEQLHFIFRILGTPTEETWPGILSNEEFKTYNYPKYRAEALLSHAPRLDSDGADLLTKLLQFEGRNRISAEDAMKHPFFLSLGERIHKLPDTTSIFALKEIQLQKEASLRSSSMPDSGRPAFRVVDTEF
# Chain of Serine/threonine-protein kinase Chk2 (O96017 whole entry): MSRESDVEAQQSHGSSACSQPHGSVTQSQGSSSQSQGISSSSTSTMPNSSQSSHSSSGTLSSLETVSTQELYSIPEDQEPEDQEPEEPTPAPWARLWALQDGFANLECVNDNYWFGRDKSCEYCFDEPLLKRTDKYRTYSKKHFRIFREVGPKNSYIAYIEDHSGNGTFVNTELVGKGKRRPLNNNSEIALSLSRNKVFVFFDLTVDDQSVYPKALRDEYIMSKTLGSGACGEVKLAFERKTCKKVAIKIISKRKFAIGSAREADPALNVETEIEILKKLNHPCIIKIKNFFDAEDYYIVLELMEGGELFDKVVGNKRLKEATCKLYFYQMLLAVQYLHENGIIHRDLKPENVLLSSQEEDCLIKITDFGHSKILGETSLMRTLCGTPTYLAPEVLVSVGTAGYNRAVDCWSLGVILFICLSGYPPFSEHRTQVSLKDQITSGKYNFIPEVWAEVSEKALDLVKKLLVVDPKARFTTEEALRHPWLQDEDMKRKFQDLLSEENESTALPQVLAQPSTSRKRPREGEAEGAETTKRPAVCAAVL
# Chain of Calcium/calmodulin-dependent protein kinase kinase 2 (Q96RR4 2-588 limits assumed): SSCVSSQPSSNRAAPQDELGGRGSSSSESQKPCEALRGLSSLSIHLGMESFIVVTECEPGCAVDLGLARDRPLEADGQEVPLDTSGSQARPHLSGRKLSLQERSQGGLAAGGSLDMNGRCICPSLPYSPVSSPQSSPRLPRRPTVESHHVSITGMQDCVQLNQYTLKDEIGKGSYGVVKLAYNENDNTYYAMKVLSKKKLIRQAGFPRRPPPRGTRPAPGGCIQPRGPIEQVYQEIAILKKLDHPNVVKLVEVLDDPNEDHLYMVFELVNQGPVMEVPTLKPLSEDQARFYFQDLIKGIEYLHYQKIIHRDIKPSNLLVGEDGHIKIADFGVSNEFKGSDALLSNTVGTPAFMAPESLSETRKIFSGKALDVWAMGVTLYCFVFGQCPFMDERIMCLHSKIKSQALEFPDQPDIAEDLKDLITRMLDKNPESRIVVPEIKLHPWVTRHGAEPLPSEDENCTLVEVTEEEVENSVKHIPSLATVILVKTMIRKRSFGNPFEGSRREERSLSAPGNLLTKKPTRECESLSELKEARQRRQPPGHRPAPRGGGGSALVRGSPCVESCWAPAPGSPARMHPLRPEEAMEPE
SMILES,ΔTm [1],ΔTm [2],ΔTm [3],ΔTm [4],ΔTm [5],ΔTm [6],ΔTm [7],ΔTm [8],ΔTm [9],ΔTm [10],ΔTm [11],ΔTm [12],ΔTm [13],ΔTm [14],ΔTm [15],ΔTm [16],ΔTm [17],ΔTm [18],ΔTm [19],ΔTm [20],also measured
Cc1[nH]c(/C=C2\C(=O)Nc3ccc(S(=O)(=O)N(C)c4cccc(Cl)c4)cc32)c(C)c1C(=O)N1CCN(C)CC1,0.4 °C,1.7 °C,3 °C,0.5 °C,1.2 °C,-0.4 °C,2.9 °C,2.1 °C,5.9 °C,3.7 °C,0.6 °C,0.3 °C,2.2 °C,4.2 °C,3.4 °C,1 °C,0.1 °C,-0.6 °C,-0.2 °C,1 °C,ΔTm [21]: 1.9 °C; ΔTm [22]: 11.3 °C; ΔTm [23]: 2.4 °C; ΔTm [24]: 4.2 °C; ΔTm [25]: -0.2 °C; ΔTm [26]: 0.1 °C
CCOC(=O)c1c(C)[nH]c(/C=C2\C(=O)Nc3ccccc32)c1C,0 °C,-1.3 °C,-0.6 °C,0.4 °C,1.4 °C,-5 °C,0.7 °C,-1.1 °C,0.6 °C,-0.1 °C,-11.4 °C,0.4 °C,0.5 °C,2.3 °C,8.5 °C,0.4 °C,0.5 °C,-0.2 °C,-0.1 °C,0.1 °C,ΔTm [21]: -0.6 °C; ΔTm [22]: 0.1 °C; ΔTm [23]: 1.6 °C; ΔTm [24]: -0.1 °C; ΔTm [25]: -0.7 °C; ΔTm [26]: 0.3 °C
N#CCCc1ccc2c(c1)-c1[nH]c3ccc([N+](=O)[O-])cc3c1CC(=O)N2 [ALSTERPAULLONE 2],0.6 °C,1.6 °C,0.4 °C,-0.3 °C,2.3 °C,3.2 °C,8.2 °C,3.1 °C,1.4 °C,2.3 °C,2.4 °C,2 °C,4.8 °C,11.8 °C,1.4 °C,0.9 °C,2.2 °C,8.7 °C,1.9 °C,1.4 °C,ΔTm [21]: 0.4 °C; ΔTm [22]: 1.4 °C; ΔTm [23]: 1.8 °C; ΔTm [24]: 3.3 °C; ΔTm [25]: 2.8 °C; ΔTm [26]: 0 °C
COc1cc2ncnc(Nc3ccc(NC(=O)c4ccccc4)cc3)c2cc1OC [ANILINOQUINAZOLINE1],0.7 °C,2 °C,0 °C,0.4 °C,1.3 °C,1.1 °C,7.3 °C,1 °C,0 °C,0.4 °C,1.1 °C,0.5 °C,1.1 °C,2.9 °C,1.9 °C,0 °C,0.3 °C,-1.4 °C,0.7 °C,0.3 °C,ΔTm [21]: -0.5 °C; ΔTm [22]: 9.4 °C; ΔTm [23]: 0.1 °C; ΔTm [24]: 0.9 °C; ΔTm [25]: 0 °C; ΔTm [26]: 0.3 °C
CN(C)c1ncnc2nc[nH]c12 [DIMETHYLADENINE],0 °C,-0.1 °C,1.7 °C,-0.2 °C,1 °C,0.1 °C,0.5 °C,1.3 °C,0.9 °C,0.4 °C,-0.1 °C,0.5 °C,0.8 °C,0.7 °C,0.9 °C,-0.2 °C,0.8 °C,-0.3 °C,0 °C,0.3 °C,ΔTm [21]: 0.5 °C; ΔTm [22]: 0.8 °C; ΔTm [23]: 0.8 °C; ΔTm [24]: 0.3 °C; ΔTm [25]: 0 °C; ΔTm [26]: 0.5 °C
CSc1nc(-c2ccc(F)cc2)c(-c2ccnc(NC(C)c3ccccc3)c2)[nH]1 (racemic),0.5 °C,1.9 °C,0.6 °C,0.9 °C,0.7 °C,0 °C,0.7 °C,0 °C,0.1 °C,-0.2 °C,3.6 °C,3.4 °C,1.3 °C,0 °C,0.9 °C,0.1 °C,0.9 °C,0.4 °C,-0.4 °C,-0.2 °C,ΔTm [21]: 0.9 °C; ΔTm [22]: 0.2 °C; ΔTm [23]: 0.8 °C; ΔTm [24]: 0.3 °C; ΔTm [25]: -0.1 °C; ΔTm [26]: 0.4 °C
